Source: patent US20160153002A1, “METHOD FOR CELL MEMBRANE PERMEATION FOR COMPOUND” (HitGen LTD., priority 2013, published 2016)
{NH2C12} = amino-(CH2)12 linker attached through a phosphate; {FITC} = fluorescein (FITC) label

The substances below were run on HepG2 cells (assay: Transmembrane transfer of FITC-tagged single-stranded or double-stranded DNA/RNA with X-tremeGENEsiRNA reagent, laser confocal microscopy). Conditions: 4 nmol, 6 h, laser confocal microscope, FIG. 5.
Type: cell-based
Method: 24 h before transfer, the HepG2 cells in the phase of logarithmic growth were digested with trypsin; a culture medium containing 10% serum was used for adjusting the cell density to 0.5×10^6 cells/mL; and the cells were inoculated again in a cell culture dish of 15 cm and cultured in a culture incubator containing 5% CO2 at 37° C. The cells may be used for experiments when the cell density reaches 60% to 70% 24 h later.
4 nmol of synthesized single-stranded or double-stranded DNA/RNA fragments in different sequences was added to a sterile centrifuge tube (tube A) of 15 mL, respectively, and uniformly mixed with Opti-MEM in a corresponding volume, with a total volume of 2 mL; the X-tremeGENEsiRNA reagent was shaken gently, and 160 μL of X-tremeGENEsiRNA reagent was mixed with 1.84 mL of Opti-MEM in another tube (tube B); and the solution in the tube A was mixed with the solution in the tube B, the mixture was slightly triturated by a pipette and incubated for 20 min at room temperature.
6 mL of RPMI-1640 serum-free culture medium was added to the mixture and mixed uniformly; the primary culture medium in the HepG2 cell culture dish was discarded, and slightly triturated with RPMI-1640 serum-free culture medium once; and then, the mixture was moved into the HepG2-PT cell culture dish, and cultured in a culture incubator containing 5% CO2 at 37° C. 6 h later, the positioning of the DNA/RNA in the cells was observed by a laser confocal microscope.

| Substance | positioning of the DNA/RNA in the cells (transfer into cells) |
| --- | --- |
| 5′-NH2—(CH2)12—PO4-A5-3′-FITC [polyA of 5 bp] | transferred into cells by X-tremesiRNA, with most of them into the cytoplasm and a few of them into the cell nucleus |
| 5′-NH2—(CH2)12—PO4-A3-3′-FITC [polyA of 38 bp] | transferred into cells by X-tremesiRNA, with most of them into the cytoplasm and a few of them into the cell nucleus |
| double-stranded random sequence fragments of 19 bp: duplex of 5′-NH2-(CH2)12-PO4-TGGGCTGGCCAAACTGCTG-3′-FITC with 3′-ACCCGACCGGTTTGACGAC-5′ | transferred into cells by X-tremesiRNA, with most of them into the cytoplasm and a few of them into the cell nucleus |
| 5′-NH2—(CH2)12—PO4-A19-3′-FITC [polyA of 19 bp] | transferred into cells by X-tremesiRNA, with most of them into the cytoplasm and a few of them into the cell nucleus |
| 5′-NH2—(CH2)12—PO4-TGGGCTGGCCAAACTGCTG-3′-FITC (DNA, 5' {NH2C12}, 3' {FITC}, backbone and methylation of C not given here) | transferred into cells by X-tremesiRNA, with most of them into the cytoplasm and a few of them into the cell nucleus |
